Data as given in paper doi:10.1101/2021.08.17.455204v3 (biorxiv, 2022).

Columns and labels:
Insulin = Insulin (Rattus norvegicus, UniProt P15127); experiment: biochemical; details: read-out: % inhibition
[1] = target: Protein Tyrosine Kinase, ABL1 (Homo sapiens, UniProt P00519); experiment: biochemical; details: read-out: % inhibition
[2] = target: Protein Tyrosine Kinase, Src (Homo sapiens, UniProt P12931); experiment: biochemical; details: read-out: % inhibition
Monoamine Oxidase MAO-A = Monoamine Oxidase MAO-A (Homo sapiens, UniProt P21397); experiment: biochemical; details: read-out: % inhibition
HMG-CoA Reductase = HMG-CoA Reductase (Homo sapiens, UniProt P04035); experiment: biochemical; details: read-out: % inhibition
Monoamine Oxidase MAO-B = Monoamine Oxidase MAO-B (Homo sapiens, UniProt P27338); experiment: biochemical; details: read-out: % inhibition
Peptidase, Renin = Peptidase, Renin (Homo sapiens, UniProt P00797); experiment: biochemical; details: read-out: % inhibition
[3] = target: Na+/K+ ATPase alpha1 isoform from dog kidney (Canis lupus, UniProt P50997); experiment: […]-ATP hydrolysis, ouabain-sensitive ATPase inhibition; assay type: biochemical
Androgen (Testosterone) = Androgen (Testosterone) (Homo sapiens, UniProt P10275); experiment: biochemical; details: read-out: % inhibition
CYP450, 19 = CYP450, 19 (Homo sapiens, UniProt P11511); experiment: biochemical; details: read-out: % inhibition
CYP450, 19, sequence (P11511 whole entry): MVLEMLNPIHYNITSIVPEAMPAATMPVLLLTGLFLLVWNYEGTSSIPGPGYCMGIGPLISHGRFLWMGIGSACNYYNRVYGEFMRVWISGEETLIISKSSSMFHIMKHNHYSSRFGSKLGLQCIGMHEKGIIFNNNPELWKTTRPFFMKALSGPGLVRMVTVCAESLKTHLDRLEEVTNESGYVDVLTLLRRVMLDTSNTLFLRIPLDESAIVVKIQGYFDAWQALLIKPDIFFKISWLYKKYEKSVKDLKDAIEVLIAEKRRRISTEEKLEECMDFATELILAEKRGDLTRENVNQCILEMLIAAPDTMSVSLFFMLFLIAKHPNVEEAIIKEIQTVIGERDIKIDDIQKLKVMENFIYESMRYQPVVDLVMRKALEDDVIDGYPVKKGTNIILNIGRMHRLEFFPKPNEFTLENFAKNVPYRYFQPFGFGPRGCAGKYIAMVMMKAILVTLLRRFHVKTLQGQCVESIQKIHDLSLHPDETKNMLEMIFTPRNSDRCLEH

[4] = target: Peptidase, Angiotensin Converting Enzyme (Oryctolagus cuniculus, UniProt P12822); experiment: biochemical; details: read-out: % inhibition
Muscarinic M3 = Muscarinic M3 (Homo sapiens, UniProt P20309); experiment: biochemical; details: read-out: % inhibition
[5] = target: Nicotinic Acetylcholine α3β4 (Homo sapiens, UniProt P30926+P32297); experiment: biochemical; details: read-out: % inhibition
Adenosine A1 = Adenosine A1 (Homo sapiens, UniProt P30542); experiment: biochemical; details: read-out: % inhibition
Dopamine D3 = Dopamine D3 (Homo sapiens, UniProt P35462); experiment: biochemical; details: read-out: % inhibition
Dopamine D3, sequence (P35462 whole entry): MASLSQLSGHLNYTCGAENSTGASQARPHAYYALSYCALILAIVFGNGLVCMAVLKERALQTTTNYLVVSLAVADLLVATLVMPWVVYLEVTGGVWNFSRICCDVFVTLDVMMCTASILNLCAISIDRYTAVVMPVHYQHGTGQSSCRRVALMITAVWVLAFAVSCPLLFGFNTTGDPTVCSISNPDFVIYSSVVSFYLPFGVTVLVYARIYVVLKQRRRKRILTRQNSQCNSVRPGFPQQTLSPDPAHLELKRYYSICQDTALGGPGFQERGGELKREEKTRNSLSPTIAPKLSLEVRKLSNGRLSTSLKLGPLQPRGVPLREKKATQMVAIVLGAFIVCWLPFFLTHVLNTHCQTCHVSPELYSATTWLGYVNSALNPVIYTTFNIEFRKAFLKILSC

Dopamine D2s = Dopamine D2s (Homo sapiens, UniProt P14416); experiment: biochemical; details: read-out: % inhibition
Angiotensin AT2 = Angiotensin AT2 (Homo sapiens, UniProt P50052); experiment: biochemical; details: read-out: % inhibition
Adrenergic α1B = Adrenergic α1B (Rattus norvegicus, UniProt P15823); experiment: biochemical; details: read-out: % inhibition
Histamine H1 = Histamine H1 (Homo sapiens, UniProt P35367); experiment: biochemical; details: read-out: % inhibition
Histamine H1, sequence (P35367 whole entry): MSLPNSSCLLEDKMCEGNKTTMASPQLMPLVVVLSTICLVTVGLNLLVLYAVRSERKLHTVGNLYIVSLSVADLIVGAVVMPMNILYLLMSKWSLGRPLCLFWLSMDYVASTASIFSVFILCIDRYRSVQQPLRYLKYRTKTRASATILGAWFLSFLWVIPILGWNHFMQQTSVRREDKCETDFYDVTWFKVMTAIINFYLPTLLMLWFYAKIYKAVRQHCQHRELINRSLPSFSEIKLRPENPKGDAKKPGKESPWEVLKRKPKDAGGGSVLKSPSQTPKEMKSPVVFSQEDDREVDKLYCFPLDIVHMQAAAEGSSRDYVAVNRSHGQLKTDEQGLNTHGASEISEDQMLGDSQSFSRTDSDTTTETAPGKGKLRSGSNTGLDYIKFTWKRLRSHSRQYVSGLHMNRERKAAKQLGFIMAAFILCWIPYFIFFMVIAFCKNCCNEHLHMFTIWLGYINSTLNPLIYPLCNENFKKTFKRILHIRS

Opiate μ (OP3, MOP) = Opiate μ (OP3, MOP) (Homo sapiens, UniProt P35372); experiment: biochemical; details: read-out: % inhibition
Opiate μ (OP3, MOP), sequence (P35372 whole entry): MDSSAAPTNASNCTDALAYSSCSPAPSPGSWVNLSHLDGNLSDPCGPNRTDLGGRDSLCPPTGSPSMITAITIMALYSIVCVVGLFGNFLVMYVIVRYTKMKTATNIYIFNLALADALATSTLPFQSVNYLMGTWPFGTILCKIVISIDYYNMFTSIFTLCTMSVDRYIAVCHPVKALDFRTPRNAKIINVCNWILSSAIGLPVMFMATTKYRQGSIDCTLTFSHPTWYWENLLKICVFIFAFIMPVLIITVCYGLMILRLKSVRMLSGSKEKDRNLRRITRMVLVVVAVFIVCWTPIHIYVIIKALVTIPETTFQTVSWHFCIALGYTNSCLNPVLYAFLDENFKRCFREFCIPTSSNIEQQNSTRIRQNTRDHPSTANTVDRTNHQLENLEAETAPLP

Estrogen ERα = Estrogen ERα (Homo sapiens, UniProt P03372); experiment: biochemical; details: read-out: % inhibition
Estrogen ERα, sequence (P03372 whole entry): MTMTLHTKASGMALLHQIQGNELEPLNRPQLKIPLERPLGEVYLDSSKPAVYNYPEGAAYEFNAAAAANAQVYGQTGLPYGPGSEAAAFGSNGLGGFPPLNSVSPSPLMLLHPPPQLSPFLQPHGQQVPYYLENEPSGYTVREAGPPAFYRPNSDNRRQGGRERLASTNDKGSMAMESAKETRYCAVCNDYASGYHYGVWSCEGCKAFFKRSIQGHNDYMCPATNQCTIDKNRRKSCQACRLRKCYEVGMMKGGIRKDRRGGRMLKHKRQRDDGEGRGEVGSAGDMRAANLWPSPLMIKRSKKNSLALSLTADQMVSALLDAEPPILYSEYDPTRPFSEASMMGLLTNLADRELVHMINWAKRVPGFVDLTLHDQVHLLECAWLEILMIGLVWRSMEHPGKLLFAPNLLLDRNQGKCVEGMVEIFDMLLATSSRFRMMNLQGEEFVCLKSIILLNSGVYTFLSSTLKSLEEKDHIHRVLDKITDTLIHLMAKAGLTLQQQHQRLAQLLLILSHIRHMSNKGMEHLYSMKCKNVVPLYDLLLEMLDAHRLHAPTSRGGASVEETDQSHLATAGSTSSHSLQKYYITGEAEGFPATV

Estrogen ERβ = Estrogen ERβ (Homo sapiens, UniProt Q92731); experiment: biochemical; details: read-out: % inhibition
Adenosine A2A = Adenosine A2A (Homo sapiens, UniProt P29274); experiment: biochemical; details: read-out: % inhibition
Adenosine A2A, sequence (P29274 whole entry): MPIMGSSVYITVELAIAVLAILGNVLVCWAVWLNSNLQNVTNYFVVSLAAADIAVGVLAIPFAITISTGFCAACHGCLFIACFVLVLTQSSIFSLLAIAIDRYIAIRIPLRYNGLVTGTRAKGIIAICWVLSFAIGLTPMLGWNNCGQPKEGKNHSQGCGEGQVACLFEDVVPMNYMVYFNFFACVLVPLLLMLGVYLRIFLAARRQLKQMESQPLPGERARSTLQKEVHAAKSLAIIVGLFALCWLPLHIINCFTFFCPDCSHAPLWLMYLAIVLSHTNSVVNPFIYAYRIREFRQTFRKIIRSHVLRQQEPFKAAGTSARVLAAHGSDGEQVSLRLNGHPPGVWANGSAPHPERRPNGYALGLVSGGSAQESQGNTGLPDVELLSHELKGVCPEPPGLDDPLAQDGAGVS

Sigma σ2 = Sigma σ2 (Rattus norvegicus, UniProt Q5U3Y7); experiment: biochemical; details: read-out: % inhibition
Sigma σ2, sequence (Q5U3Y7 whole entry): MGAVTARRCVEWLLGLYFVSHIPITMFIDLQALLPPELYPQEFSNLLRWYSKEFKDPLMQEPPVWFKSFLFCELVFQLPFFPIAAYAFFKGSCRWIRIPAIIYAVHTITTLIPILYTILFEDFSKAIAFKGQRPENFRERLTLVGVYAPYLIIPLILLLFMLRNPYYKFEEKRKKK

Adrenergic α2A = Adrenergic α2A (Homo sapiens, UniProt P08913); experiment: biochemical; details: read-out: % inhibition
Angiotensin AT1 = Angiotensin AT1 (Homo sapiens, UniProt P30556); experiment: biochemical; details: read-out: % inhibition
Angiotensin AT1, sequence (P30556 whole entry): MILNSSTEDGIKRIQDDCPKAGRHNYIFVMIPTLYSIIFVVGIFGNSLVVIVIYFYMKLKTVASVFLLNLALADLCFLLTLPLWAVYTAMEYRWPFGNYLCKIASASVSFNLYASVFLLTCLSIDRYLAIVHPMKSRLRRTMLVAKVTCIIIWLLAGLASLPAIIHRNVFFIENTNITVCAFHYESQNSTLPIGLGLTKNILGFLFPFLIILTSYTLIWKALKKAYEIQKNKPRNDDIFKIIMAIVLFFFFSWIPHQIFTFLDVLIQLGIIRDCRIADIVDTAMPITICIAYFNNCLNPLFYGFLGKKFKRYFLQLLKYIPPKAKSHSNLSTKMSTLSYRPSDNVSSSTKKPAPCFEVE

Potassium Channel hERG = Potassium Channel hERG (Homo sapiens, UniProt Q12809); experiment: in vitro; details: crude membrane preparations
Adrenergic β2 = Adrenergic β2 (Homo sapiens, UniProt P07550); experiment: biochemical; details: read-out: % inhibition
Dopamine D1 = Dopamine D1 (Homo sapiens, UniProt P21728); experiment: biochemical; details: read-out: % inhibition
Dopamine D1, sequence (P21728 whole entry): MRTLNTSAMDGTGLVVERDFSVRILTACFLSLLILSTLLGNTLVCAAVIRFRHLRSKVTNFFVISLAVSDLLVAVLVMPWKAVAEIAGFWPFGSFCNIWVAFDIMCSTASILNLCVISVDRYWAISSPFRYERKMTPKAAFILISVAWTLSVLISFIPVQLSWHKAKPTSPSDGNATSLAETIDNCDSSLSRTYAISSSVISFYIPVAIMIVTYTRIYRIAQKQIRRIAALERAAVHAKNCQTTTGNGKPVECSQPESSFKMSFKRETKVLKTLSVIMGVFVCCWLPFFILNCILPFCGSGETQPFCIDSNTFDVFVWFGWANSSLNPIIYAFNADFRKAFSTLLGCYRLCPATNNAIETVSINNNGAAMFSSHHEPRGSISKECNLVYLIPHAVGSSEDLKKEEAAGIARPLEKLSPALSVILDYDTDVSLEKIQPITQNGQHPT

Sigma σ1 = Sigma σ1 (Homo sapiens, UniProt Q99720); experiment: biochemical; details: read-out: % inhibition
Muscarinic M2 = Muscarinic M2 (Homo sapiens, UniProt P08172); experiment: biochemical; details: read-out: % inhibition
Adrenergic α1A = Adrenergic α1A (Rattus norvegicus, UniProt P43140); experiment: biochemical; details: read-out: % inhibition
Muscarinic M5 = Muscarinic M5 (Homo sapiens, UniProt P08912); experiment: biochemical; details: read-out: % inhibition
Adrenergic β1 = Adrenergic β1 (Homo sapiens, UniProt P08588); experiment: biochemical; details: read-out: % inhibition
[6] = target: Transporter, Norepinephrine (NET) (Homo sapiens, UniProt P23975); experiment: biochemical; details: read-out: % inhibition
Aldosterone = Aldosterone (Rattus norvegicus, UniProt P22199); experiment: biochemical; details: read-out: % inhibition
[7] = target: SERCA2a (guinea-pig cardiac SR microsomes) (Cavia porcellus, UniProt A0A286XD73); experiment: […]-ATP hydrolysis; assay type: biochemical; details: 37 °C; normal guinea-pig heart SR microsomes; activation; PLN present
Progesterone PR-B = Progesterone PR-B (Homo sapiens, UniProt P06401); experiment: biochemical; details: read-out: % inhibition
Glucocorticoid = Glucocorticoid (Homo sapiens, UniProt P04150); experiment: biochemical; details: read-out: % inhibition

Protein Tyrosine Kinase, ABL1, sequence (P00519 whole entry): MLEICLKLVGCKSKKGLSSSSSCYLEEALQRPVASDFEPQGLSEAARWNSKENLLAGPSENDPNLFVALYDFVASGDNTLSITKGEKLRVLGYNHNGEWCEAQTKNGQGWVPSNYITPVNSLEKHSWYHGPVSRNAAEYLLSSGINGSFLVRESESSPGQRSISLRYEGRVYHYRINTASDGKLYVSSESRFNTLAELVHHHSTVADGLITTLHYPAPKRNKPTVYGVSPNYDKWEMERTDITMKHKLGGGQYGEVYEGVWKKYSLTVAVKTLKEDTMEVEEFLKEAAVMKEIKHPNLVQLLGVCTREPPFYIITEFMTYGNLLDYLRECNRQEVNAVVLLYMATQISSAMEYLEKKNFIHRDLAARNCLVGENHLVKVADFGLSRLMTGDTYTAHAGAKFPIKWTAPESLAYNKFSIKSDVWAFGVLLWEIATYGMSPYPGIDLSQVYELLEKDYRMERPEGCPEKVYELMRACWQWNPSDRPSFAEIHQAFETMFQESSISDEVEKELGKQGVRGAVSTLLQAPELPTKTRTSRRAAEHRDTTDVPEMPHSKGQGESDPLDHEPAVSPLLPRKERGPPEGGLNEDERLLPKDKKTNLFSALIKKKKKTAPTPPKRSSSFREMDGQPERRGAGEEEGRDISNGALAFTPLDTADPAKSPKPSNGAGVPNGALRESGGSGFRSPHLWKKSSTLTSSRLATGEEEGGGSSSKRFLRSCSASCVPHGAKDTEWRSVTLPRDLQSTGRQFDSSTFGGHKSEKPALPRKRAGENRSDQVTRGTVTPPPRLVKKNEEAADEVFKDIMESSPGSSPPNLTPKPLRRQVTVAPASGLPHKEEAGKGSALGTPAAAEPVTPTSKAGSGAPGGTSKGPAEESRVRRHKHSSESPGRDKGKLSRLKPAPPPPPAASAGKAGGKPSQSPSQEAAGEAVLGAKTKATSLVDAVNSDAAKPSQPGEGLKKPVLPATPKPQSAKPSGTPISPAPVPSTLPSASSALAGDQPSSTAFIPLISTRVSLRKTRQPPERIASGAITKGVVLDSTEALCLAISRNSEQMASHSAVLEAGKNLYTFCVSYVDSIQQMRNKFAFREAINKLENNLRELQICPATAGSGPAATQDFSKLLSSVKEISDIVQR

Compound `C[C@]12CCC(=NOCC(=O)O)C[C@@H]1[C@H](O)C[C@@H]1[C@@H]2CC[C@]2(C)C(=O)CC[C@@H]12` (mixture of isomers) [PST3093, (E,Z)-[(6-beta-hydroxy-17-oxoandrostan-3-ylidene)amino]oxyacetic acid] has an inhibition at 10 µM (Insulin) of 6%, an inhibition at 10 µM [1] of 3% and an inhibition at 10 µM [2] of -1%. It also gave an inhibition at 10 µM (Monoamine Oxidase MAO-A) of 2%, an inhibition at 10 µM (HMG-CoA Reductase) of -2% and an inhibition at 10 µM (Monoamine Oxidase MAO-B) of -3%. It also gave an inhibition at 10 µM (Peptidase, Renin) of 6%, an IC50 [3] greater than 100 µM and an inhibition at 10 µM (Androgen (Testosterone)) of 3%. The inhibition at 10 µM (CYP450, 19) was 12%, the inhibition at 10 µM [4] was 3% and the inhibition at 10 µM (Muscarinic M3) was 4%. It also gave an inhibition at 10 µM [5] of 1%, an inhibition at 10 µM (Adenosine A1) of -2% and an inhibition at 10 µM (Dopamine D3) of 1%. It also gave an inhibition at 10 µM (Dopamine D2s) of 26%, an inhibition at 10 µM (Angiotensin AT2) of 7% and an inhibition at 10 µM (Adrenergic α1B) of 0%. For the same compound, the inhibition at 10 µM (Histamine H1) was -3%, the inhibition at 10 µM (Opiate μ (OP3, MOP)) was -5% and the inhibition at 10 µM (Estrogen ERα) was -6%. For the same compound, the inhibition at 10 µM (Estrogen ERβ) was 7%, the inhibition at 10 µM (Adenosine A2A) was -6% and the inhibition at 10 µM (Sigma σ2) was 12%. For the same compound, the inhibition at 10 µM (Adrenergic α2A) was -5%, the inhibition at 10 µM (Angiotensin AT1) was -1% and the inhibition at 10 µM (Potassium Channel hERG) was 10%. The inhibition at 10 µM (Adrenergic β2) was 7%, the inhibition at 10 µM (Dopamine D1) was 3% and the inhibition at 10 µM (Sigma σ1) was 7%. The inhibition at 10 µM (Muscarinic M2) was -7%, the inhibition at 10 µM (Adrenergic α1A) was 2% and the inhibition at 10 µM (Muscarinic M5) was 5%. For the same compound, the inhibition at 10 µM (Adrenergic β1) was -4%, the inhibition at 10 µM [6] was 4% and the inhibition at 10 µM (Aldosterone) was 5%. For the same compound, the “% reduction of KdCa at 100 nM” value [7] was ~ 20%, the inhibition at 10 µM (Progesterone PR-B) was -15% and the inhibition at 10 µM (Glucocorticoid) was 8%.
